Here are results for two compounds from patent EP4620956A1, “PARP1 INHIBITORS” (Zhejiang Yangli Pharmaceutical Technology Co., Ltd., priority 2022, dated 2024).

SMILES strings stand for the structures. Read-outs that look alike come from different tables or passages of the source.

For test [1], the system named is A549 WT. As to the kind of experiment: Cellular PARylation inhibition, high-content imaging, A549 WT. The class given is cell-based. The settings on record: Homo sapiens, PARylation at the cellular level. The protocol:
The inhibitory effect of the compounds on PARP1/PARP2 enzyme activity at the cellular level was detected using high-content imaging. A549 WT, PARP1-KO and PARP2-KO cell lines were established in-house, and the cells were revived. After the cells were stable, a sufficient number of cells were collected and 100 µL of the cell suspension was seeded into a 96-well plate. The next day, the example compounds with serially diluted concentrations were added. […] The plate was incubated for 1.5 hours (A549 WT and PARP2-KO cell lines) or 2 hours (PARP1-KO cell line). After removing the supernatant, 0.4 mM H2O2 was added and incubation was carried out for 10 minutes (A549 WT and PARP2-KO cell lines) or 1.5 mM H2O2 was added and incubation was carried out for 15 minutes (PARP1-KO cell line) to induce extensive cellular DNA damage. After removing the supernatant, the cells were fixed with 4% paraformaldehyde for 20 minutes, followed by treatment with 0.5% Triton X-100 for 20 minutes to increase the permeability of the cell membrane. After that, the cells were incubated with 3% BSA for 1 hour to prevent non-specific binding. […] The cell nuclei were stained for 30 minutes by adding 50 µL DAPI (invitrogen, R37606). After washing twice with PBS, images were acquired on OPERETTA CLS™ (PE) by scanning the cells under a 20x water objective lens in non-confocal mode, with 5 fields of view captured per well. […] The inhibition rate was calculated using the fluorescence values from the Max and Min wells, and the dose-response curve was fitted using the analysis software GraphPad Prism 5 to obtain the IC50 value of each compound for the enzyme activity.

In test [2] the test system is MDA-MB-436. As to the kind of experiment: Anti-proliferative activity (CellTiter-Glo, 7 days), MDA-MB-436. It is filed as cell-based, human. Particulars: Homo sapiens, MDA-MB-436, 168 h, read-out: MDA-MB-436 IC50.
Test [3] deals with MDA-MB-231. As to the kind of experiment: Anti-proliferative activity (CellTiter-Glo, 7 days), MDA-MB-231. It is filed as cell-based, human. Particulars: Homo sapiens, MDA-MB-231, 168 h, read-out: MDA-MB-231 IC50.
Test [4] relates to DLD-1 BRCA2^-/-. As to the kind of experiment: Anti-proliferative activity (CellTiter-Glo, 7 days), DLD-1 BRCA2-/-. Particulars: Homo sapiens, DLD-1, 168 h; BRCA2-mutated, 7 days. The class given is cell-based, human.
In test [5] the test system is DLD-1 WT. As to the kind of experiment: Anti-proliferative activity (CellTiter-Glo, 7 days), DLD-1 WT. The class given is cell-based, human. The settings on record: Homo sapiens, DLD-1, 168 h; BRCA2-normal, 7 days. As to the method:
The anti-proliferation experiment of the compounds on tumour cells adopted the most widely used ATP concentration-based detection method at present. MDA-MB-231 and MDA-MB-436 cell lines were obtained from ATCC, DLD-1 human colourectal adenocarcinoma epithelial cells and DLD-1 BRCA2^-/- cells were obtained from Horizon, and the cells were revived. After the cells were stable, the cells were collected. When the viable cell count exceeded 90%, 450-500 cells were seeded into a 384-well plate. The next day, the example compounds with serially diluted concentrations were added. Only buffer was added to the Max well, and 50 µM AZD2281 was added to the Min well. The plate was incubated for 7 days, and on the eighth day, CellTiter-Glo® reagent (Promega, G7573) was added. The plate was incubated at room temperature for 30 minutes, and the values were read on Envision (PE). The inhibition rate was calculated using the fluorescence values from the Max and Min wells, and the dose-response curve was fitted using the analysis software GraphPad Prism 5 to obtain the IC50 value of each compound for the enzyme activity.

In test [6] the target is T1, PARP6 (Homo sapiens, UniProt Q2NL67).
T1 construct: purchased BPS 80506
As to the kind of experiment: Inhibition of PARP6 enzyme activity (chemiluminescence). It is filed as biochemical.

The target of test [7] is T2, PARP11 (Homo sapiens, UniProt Q9NR21).
T2 construct: purchased BPS 80511
T2 sequence (Q9NR21 1-338): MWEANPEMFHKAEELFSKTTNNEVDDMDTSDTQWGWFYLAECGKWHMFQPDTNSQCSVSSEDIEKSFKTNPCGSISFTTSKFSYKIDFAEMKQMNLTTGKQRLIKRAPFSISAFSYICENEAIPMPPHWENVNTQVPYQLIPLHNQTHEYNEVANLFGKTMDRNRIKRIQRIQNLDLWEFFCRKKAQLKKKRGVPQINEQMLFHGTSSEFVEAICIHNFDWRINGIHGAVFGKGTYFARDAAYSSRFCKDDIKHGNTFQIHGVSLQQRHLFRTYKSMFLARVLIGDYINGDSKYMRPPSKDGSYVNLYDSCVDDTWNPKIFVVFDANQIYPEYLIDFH
As to the kind of experiment: Inhibition of PARP11 enzyme activity (chemiluminescent assay kit). It is filed as biochemical.

Test [8] deals with MDA-MB-436 xenograft tumour. As to the kind of experiment: Anti-tumour effect in MDA-MB-436 subcutaneous xenograft tumour mouse model. The settings on record: same dose, MDA-MB-436 xenograft mice. It is filed as in vivo. The protocol:
Example 4 was further verified in vivo. A subcutaneous xenograft tumour mouse model of the BRCA1-mutated MDA-MB-436 cell line was selected. Human breast cancer MDA-MB-436 cells (ATCC, HTB-130) were cultured in vitro in a monolayer, with the culture conditions of L-15 medium supplemented with 10% foetal bovine serum, 1% penicillin-streptomycin solution, and 0.01 mg/mL bovine insulin, and cultured at 37°C in a CO2-free incubator. The cells were routinely digested and passaged twice a week using trypsin-EDTA. When the cell confluency reached 80%-90%, the cells were harvested and counted, and 0.2 mL of 1 × 10^7 MDA-MB-436 cells were subcutaneously inoculated on the right back of each mouse (PBS : Matrigel = 1 : 1). When the mean tumour volume reached 152 mm^3, the mice were grouped for drug administration. The day of drug administration was set as Day 0. The tumour volume and the body weight of the mice were monitored twice a week, and the drug treatment lasted for 28 days.
The diameter of the tumour was measured with a vernier calliper. The tumour volume is calculated according to the following equation: V = 0.5a × b^2, where a and b represent the long and short diameters of the tumour, respectively. The tumour inhibition effect of the compound was evaluated by relative tumour shrinkage rate Reg%. Reg% reflects the rate of tumour volume reduction after treatment. Reg% = (V0-Vt)/V0×100%, where V0 is the tumour volume measured at the time of grouping for drug administration (i.e., d0), and Vt is the tumour volume measured at a certain time point.
The criteria for compound response in the mouse model were adapted from mRECIST (Modified Response Evaluation Criteria in Solid Tumours) (Gao et al, 2015), and are specifically defined as follows: [formula] • PR (Partial Response): BestResponse < −50% and BestAvgResponse < −20%; [formula] • SD (Stable Disease): BestResponse < 35% and BestAvgResponse < 30%; [formula] • PD (Progressive Disease): other cases; • ORR% is the sum of the proportions of Complete Response (CR) and Partial Response (PR).
Statistical analysis was performed using Prism software, including the mean value (Mean) and standard error of the mean (SEM) of the tumour volume at each time point for each group. For the statistical analysis of TV, the original TV data from each measurement were used to compare the differences between groups. Two-way ANOVA was applied to include the two factors, i.e., drug administration and time for analysis, followed by the Tukey's multiple comparisons test, wherein p < 0.05 was considered statistically significant.

The target in test [9] is T3, PARP3 (Homo sapiens, UniProt Q9Y6F1).
T3 construct: purchased BPS 80503
T3 sequence (Q9Y6F1 1-533): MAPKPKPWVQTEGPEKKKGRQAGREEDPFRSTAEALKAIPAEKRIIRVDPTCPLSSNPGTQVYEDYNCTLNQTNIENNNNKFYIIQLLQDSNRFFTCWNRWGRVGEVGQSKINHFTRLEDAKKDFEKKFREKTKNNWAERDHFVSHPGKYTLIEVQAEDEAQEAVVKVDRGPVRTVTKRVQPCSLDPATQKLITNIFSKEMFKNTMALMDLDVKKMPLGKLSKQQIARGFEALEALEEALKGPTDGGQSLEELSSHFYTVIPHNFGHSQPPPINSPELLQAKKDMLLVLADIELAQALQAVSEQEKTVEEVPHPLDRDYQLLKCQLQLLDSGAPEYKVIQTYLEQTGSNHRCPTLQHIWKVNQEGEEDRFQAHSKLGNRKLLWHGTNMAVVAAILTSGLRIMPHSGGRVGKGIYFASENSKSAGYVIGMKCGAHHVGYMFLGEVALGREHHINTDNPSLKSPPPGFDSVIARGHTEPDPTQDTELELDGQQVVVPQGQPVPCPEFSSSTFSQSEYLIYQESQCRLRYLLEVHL
As to the kind of experiment: Inhibition of PARP3 enzyme activity (chemiluminescence). It is filed as biochemical. Particulars: ratio relative to the PARP1 enzyme activity.

The target in test [10] is T4, PARP2 (Homo sapiens, UniProt Q9UGN5).
T4 construct: purchased BPS 80502
As to the kind of experiment: PARP2-DNA trapping, fluorescence polarization (FP). The class given is biochemical.

[11] abbreviates: ratio relative to the PARP1 enzyme activity.

T4 sequence (Q9UGN5 whole entry): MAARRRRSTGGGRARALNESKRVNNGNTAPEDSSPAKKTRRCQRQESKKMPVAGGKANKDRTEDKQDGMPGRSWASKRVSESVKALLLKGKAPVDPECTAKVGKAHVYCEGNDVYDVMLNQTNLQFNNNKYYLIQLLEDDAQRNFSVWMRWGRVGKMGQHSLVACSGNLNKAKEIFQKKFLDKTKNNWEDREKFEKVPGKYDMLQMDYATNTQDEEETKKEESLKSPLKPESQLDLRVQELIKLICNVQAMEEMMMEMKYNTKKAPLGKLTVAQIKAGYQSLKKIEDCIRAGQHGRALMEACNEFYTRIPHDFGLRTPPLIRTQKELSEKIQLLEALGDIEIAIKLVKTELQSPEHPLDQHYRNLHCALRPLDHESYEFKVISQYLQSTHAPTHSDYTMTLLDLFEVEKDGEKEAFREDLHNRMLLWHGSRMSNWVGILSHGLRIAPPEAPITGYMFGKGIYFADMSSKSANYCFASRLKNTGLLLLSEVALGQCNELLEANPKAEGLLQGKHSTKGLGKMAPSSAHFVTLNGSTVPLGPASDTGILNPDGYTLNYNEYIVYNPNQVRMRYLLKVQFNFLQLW
T1 sequence (Q2NL67 whole entry): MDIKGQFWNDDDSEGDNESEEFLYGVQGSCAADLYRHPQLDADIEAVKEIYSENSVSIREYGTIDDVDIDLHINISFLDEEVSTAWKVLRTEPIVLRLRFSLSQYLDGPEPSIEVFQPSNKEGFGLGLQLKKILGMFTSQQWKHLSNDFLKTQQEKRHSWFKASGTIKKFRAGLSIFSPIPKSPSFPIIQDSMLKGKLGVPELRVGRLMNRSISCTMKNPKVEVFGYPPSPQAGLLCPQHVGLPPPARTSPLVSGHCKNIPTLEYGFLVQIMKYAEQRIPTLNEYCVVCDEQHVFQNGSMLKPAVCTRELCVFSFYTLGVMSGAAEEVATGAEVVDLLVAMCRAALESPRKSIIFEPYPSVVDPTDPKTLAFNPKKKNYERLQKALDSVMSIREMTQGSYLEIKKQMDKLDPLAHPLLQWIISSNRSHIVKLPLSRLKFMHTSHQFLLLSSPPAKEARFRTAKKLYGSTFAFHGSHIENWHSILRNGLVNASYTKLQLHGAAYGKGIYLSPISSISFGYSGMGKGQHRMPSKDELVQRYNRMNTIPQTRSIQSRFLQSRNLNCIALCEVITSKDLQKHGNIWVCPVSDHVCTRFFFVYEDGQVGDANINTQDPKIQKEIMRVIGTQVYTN

For the compound `CCc1cc2ncc(CN3CCN(c4ccc(C(=O)NC)nc4)CC3)cc2[nH]c1=O` [AZD5305, reference compound], the half-maximal inhibitory concentration (IC50) in test [1] was 0.0022 µM; in [2] (BRCA1-mutated, 7 days), 0.00194 µM; in test [3] (BRCA1-normal, 7 days) it was more than 10 µM; in [4] it was 0.00212 µM; in test [5], more than 10 µM; in test [6] (enzyme activity) it was 8.66 µM. It took 0.0194 µM to reach half-maximal inhibition in test [7] (enzyme activity) (IC50). For the same compound, the “PARP6 multiple vs PARP1” value in test [6] (setting [11]) was 20,619. The “PARP11 multiple vs PARP1” value in test [7] (setting [11]) was 46. Moreover, in [8] (FIG. 3), the tumour regression result is recorded as “promoted tumour regression”. This compound also came in with an ORR in test [8] (treatment 28 days) of 20%.

`O=C(c1cc(Cc2n[nH]c(=O)c3ccccc23)ccc1F)N1CCN(C(=O)C2CC2)CC1` [Olaparib, olaparib]: the IC50 in test [2] worked out at 0.298 µM; in test [3], 9.52 µM. Also, the “PARP3 multiple vs PARP1” value in [9] worked out at 47. For the same compound, the Bottom in [10] (PARP2, 0.25 hour) is -5.4; in test [10] (PARP2, 0.5 hour), -2.7; in test [10] (PARP2, 1 hour) it was 2.8; in test [10] (PARP2, 2 hour), -2.0; in test [10] (PARP2, 4 hour) it was -1.4; in test [10] (PARP2, 8 hour), 1.8. Further, the Bottom is given as 0.3 in test [10] (PARP2, 24 hour) and -1.6 in test [10] (PARP2, 48 hour). Also, the Hillslope stood at 1.2 in test [10] (PARP2, 0.25 hour); 1.4 in test [10] (PARP2, 0.5 hour); 2.0 in [10] (PARP2, 1 hour); 2.2 in test [10] (PARP2, 2 hour); 1.9 in test [10] (PARP2, 4 hour); 2.1 in [10] (PARP2, 8 hour). Besides, the Hillslope was determined as 2.0 in [10] (PARP2, 24 hour) and 1.8 in [10] (PARP2, 48 hour). The Top in [10] (PARP2, 0.25 hour) was 107.8; in test [10] (PARP2, 0.5 hour), 109.9; in test [10] (PARP2, 1 hour), 109.4; in test [10] (PARP2, 2 hour), 107.9; in [10] (PARP2, 4 hour), 107.2; in test [10] (PARP2, 8 hour) it was 106.5. Besides, the Top in test [10] (PARP2, 24 hour) is reported as 109.8; in test [10] (PARP2, 48 hour) it was 110.6.
